Results published in US20160221991A1, “NOVEL TRIAZINE DERIVATIVE” (CARNA BIOSCIENCES, INC., priority 2013, published 2016).

Test system: anti-IgM antibody BCR stimulation-induced intracellular calcium influx in Ramos cells
Test: Inhibition test on the change of Ramos intracellular calcium ion
Format: cell-based
Details: Fluo-8NW fluorescence, anti-IgM 2.0 μg/mL, FIG. 1
Protocol: The intracellular BTK inhibition by the compounds of the present invention was verified by measuring the effects of the compounds of the present invention on “anti-IgM antibody BCR stimulation-induced intracellular calcium influx”. One day before measurement, the Ramos cells were cultured as being suspended again at a cell density of 1.0×10^6 cells/mL in a fresh growth medium (growth medium as used in Test Example 2), and the cells were recovered next day by centrifugation and washed with RPMI-1640 medium supplemented with 5% penicillin-streptomycin (Nacalai Tesque, Inc.) (Medium 1). […] The Ramos intracellular calcium ion concentration was measured as a fluorescent intensity of the calcium indicator Fluo-8NW using a microplate reader (SynergyH1) (Ex/Em=490/525 nm) After measuring the baseline for 15 seconds, 50 μL of the anti-IgM antibody (Invitrogen, #H15100) diluted with Medium 2 to 10.4 μg/mL was added to each well described above (final concentration of 2.0 μg/mL) to effect BCR stimulation, and then the measurement was continued further for 150 seconds.

Cn1cc(Nc2nc(N)nc(-c3ccnc(-n4ccc5cc(C6CC6)cc(F)c5c4=O)c3CO)n2)cc1C#N [Example 3, 4-({4-Amino-6-[2-(6-cyclopropyl-8-fluoro-1-oxoisoquinolin-2(1H)-yl)-3-(hydroxymethyl)pyridin-4-yl]-1,3,5-triazin-2-yl}amino)-1-methyl-1H-pyrrole-2-carbonitrile]
inhibition of anti-IgM antibody BCR stimulation-induced intracellular calcium ion variation: in a concentration-dependent manner from a low concentration
